# Results published in PubChem BioAssay (NCI).
#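 1) Cells in 96-well plates. 2) Compound, 48 h, 5 concentrations. 3) Linear interpolation between surrounding doses. 4) Unreached endpoint = highest concentration. TGI: total growth inhibition.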
# Key:
# Assay in all cases: growth of human tumour cells (NCI), 48 h
# [1] = system: UACC-62 melanoma
# [2] = system: RPMI-8226 leukemia
# [3] = system: K-562 leukemia
# [4] = system: IGROV1 ovarian
# [5] = system: SW-620 colon
# [6] = system: OVCAR-5 ovarian
# [7] = system: NCI-H460 lung
# [8] = system: HL-60(TB) leukemia
# [9] = system: 786-0 renal
# [10] = system: A549 NSCLC
# [11] = system: NCI-H226 lung
# [12] = system: RXF 393 renal
SMILES,TGI [1],TGI [2],TGI [3],TGI [4],TGI [5],TGI [6],TGI [7],TGI [8],TGI [9],TGI [10],TGI [11],TGI [12]
C[C@H]1C(OCCOC2O[C@@H]3O[C@@]4(C)CC[C@H]5[C@H](C)CCC([C@H]2C)[C@@]35O4)O[C@@H]2O[C@@]3(C)CC[C@H]4[C@H](C)CCC1[C@@]24O3 (stereo not given in full),> 100 µM,> 100 µM,> 100 µM,90.6 µM,> 100 µM,> 100 µM,> 100 µM,74.9 µM,> 100 µM,> 100 µM,> 100 µM,
CC1(C)C=[N+]([O-])C(C)(C)N1,> 100 µM,> 100 µM,> 100 µM,> 100 µM,> 100 µM,> 100 µM,> 100 µM,> 100 µM,> 100 µM,> 100 µM,> 100 µM,> 100 µM
CCCC(=O)N/S(=N/S(=O)(=O)c1ccc(Cl)cc1)C(Cl)(Cl)Cl (stereo not given),> 100 µM,,> 100 µM,> 100 µM,> 100 µM,> 100 µM,> 100 µM,> 100 µM,> 100 µM,> 100 µM,> 100 µM,> 100 µM
CN(C)c1ncnc2c1ncn2C1C=CC(COS(N)(=O)=O)C1 (stereo not given),> 100 µM,> 100 µM,> 100 µM,> 100 µM,> 100 µM,,> 100 µM,> 100 µM,> 100 µM,> 100 µM,,> 100 µM
CCOC(OCC)c1ccc(/C=C/c2cc(OC)c(OC)c(OC)c2)cc1,33.2 µM,63 µM,39.8 µM,> 100 µM,56.3 µM,55.7 µM,38.1 µM,30.1 µM,60.1 µM,95.2 µM,62.5 µM,40.9 µM
COc1cc2c(cc1OC)C1C(O)C(OC)C=C3CC[N+](C)(C2)C31 (stereo not given),> 100 µM,> 100 µM,,> 100 µM,> 100 µM,> 100 µM,> 100 µM,> 100 µM,> 100 µM,> 100 µM,> 100 µM,> 100 µM
CCOC(=O)c1cc(C2CCN(CC(C)CC)C2=S)c(C(=O)/C=C(/C)N)[nH]1 (stereo not given),> 50 µM,> 50 µM,> 50 µM,> 50 µM,> 50 µM,> 50 µM,> 50 µM,> 50 µM,> 50 µM,,> 50 µM,> 50 µM
COc1cc(C)cc2c1C(=O)C(Br)=CC2=O,23.3 µM,,,31.7 µM,3.62 µM,36.6 µM,38.4 µM,,8.16 µM,43.4 µM,32.3 µM,8.36 µM
COC1=CC(C2c3cc4c(cc3[C@@H](Nc3ccc([N+](=O)[O-])cc3)C3COC(=O)[C@H]23)OCO4)=CC(=O)C1=O (stereo not given in full),8.96 µM,> 100 µM,> 96.6 µM,> 65.2 µM,> 66.4 µM,41 µM,7.08 µM,,4.86 µM,10.6 µM,6.65 µM,86.8 µM
O=c1cc(NCC2CCCCC2)[nH]c(=O)[nH]1,,> 100 µM,> 100 µM,> 100 µM,> 100 µM,> 100 µM,> 100 µM,> 100 µM,> 100 µM,> 100 µM,> 100 µM,> 100 µM
CC(=N/NC(=S)Nc1c(C)n(C)n(-c2ccccc2)c1=O)/C(C)=N\NC(=S)Nc1c(C)n(C)n(-c2ccccc2)c1=O,> 100 µM,,,,> 100 µM,> 100 µM,> 100 µM,> 100 µM,> 100 µM,> 100 µM,> 100 µM,> 100 µM
CC1(C)[C@@H]2C[C@H]1C(Cc1ccc(C[C@H]3c4cc(-c5ccccn5)ncc4[C@H]4C[C@@H]3C4(C)C)cc1)c1cc(-c3ccccn3)ncc12 (stereo not given in full),5.68 µM,70 µM,> 100 µM,> 100 µM,> 100 µM,> 100 µM,13.8 µM,2.28 µM,14.7 µM,87.9 µM,,77.8 µM
CS(=O)(=O)c1[nH]nc2[nH]c(=O)[nH]c(=O)c12,> 10 µM,,,> 10 µM,> 10 µM,> 10 µM,> 10 µM,> 10 µM,> 10 µM,> 10 µM,> 10 µM,> 10 µM
O=c1n(-c2ccccc2)c(=O)n2n1C1CCC2CC1,> 100 µM,> 100 µM,> 100 µM,> 100 µM,> 100 µM,> 100 µM,> 100 µM,> 100 µM,> 100 µM,> 100 µM,> 100 µM,
Cc1cc(NC(=O)C(=O)Cc2cnc3ccccc3n2)c(S(=O)(=O)O)cc1Cl,> 100 µM,> 100 µM,> 100 µM,> 100 µM,> 100 µM,> 100 µM,> 100 µM,> 100 µM,> 100 µM,> 100 µM,> 100 µM,
COC(=O)[C@H]1C=C[C@@H](C)n2c(=O)c3ccccc3c(=O)n21,,> 100 µM,> 100 µM,> 100 µM,> 100 µM,> 100 µM,> 100 µM,> 100 µM,> 100 µM,> 100 µM,> 100 µM,> 100 µM
COC(C/C(=C/CO[Si](C(C)C)(C(C)C)C(C)C)C(=O)Nc1ccccc1I)OC,> 100 µM,43.4 µM,> 100 µM,28.7 µM,> 100 µM,70 µM,> 100 µM,,> 100 µM,> 100 µM,98.5 µM,27.1 µM
CCOC(=O)c1nnsc1NC(=O)Nc1ccc(Cl)cc1,> 100 µM,> 100 µM,> 100 µM,> 100 µM,> 100 µM,> 100 µM,32.1 µM,,42.4 µM,> 100 µM,> 100 µM,> 100 µM
CC1=CCC[C@@](C)(O)[C@@H]2C[C@H]3C(CSc4ccccc4)C(=O)O[C@H]3[C@@H](O2)[C@H](C)CCC1 (stereo not given in full),34.1 µM,84 µM,> 100 µM,85.1 µM,93.2 µM,30.7 µM,20.4 µM,> 100 µM,67.5 µM,27.1 µM,,30.4 µM
